Here are results for two molecules from US11166916B2, “Carbon quantum dots and preparation process and use thereof” (CHANG GUNG UNIVERSITY, priority 2019, dated 2021).

Common to all, as to experiment: Antimicrobial test, MIC90 by spread plate count
Experiment [1] concerns Escherichia coli. Format: cell-based. Conditions: BCRC10316, Escherichia coli BCRC 10316. As for the experimental part:
(§1) A respective one of Staphylococcus aureus, Escherichia coli, Pseudomonas aeruginosa, Salmonella enteritidis, and MRSA was inoculated into a LB broth, followed by incubation in a thermostatic shaking incubator (37° C.) until an OD600 value of 1.0 was reached. The respective resultant culture was centrifuged at 3,000 g for 10 minutes, and the cell pellet thus obtained was washed with a 5 mM phosphate buffer (pH 7.4), followed by suspending with a LB broth. The resultant bacterial broths of Staphylococcus aureus, Escherichia coli, Pseudomonas aeruginosa, Salmonella enteritidis, and MRSA (each of such five bacterial suspensions contained a bacterial concentration of 1×10^4 CFU/mL) were used for the following experiment.
(§2) A suitable amount of a respective one of CQD^DA, CQD^SPD, CQD^DA-SPM, CQD^DA-SPD, CQD^DA-PUT, CQD^DA-SPM-1, and CQD^DA-SPM-2 was freeze-dried, and the respective resultant freeze-dried powder was dissolved in deionized water, followed by dilution with a 5 mM phosphate buffer (pH 7.4), so as to obtain seven CQD solutions having different concentrations (0.05-50 μg/mL).
(§3) A respective one of the five CQD solutions (i.e., CQD^DA, CQD^SPD, CQD^DA-SPM, CQD^DA-SPD, and CQD^DA-PUT solutions), the DA solutions, and the SPM solutions and a respective one of the bacterial broths of Staphylococcus aureus and Escherichia coli were mixed in a 5 mM phosphate buffer (pH 7.4), and the respective resultant mixture was incubated in a thermostatic shaking incubator (37° C.) for 1 hour, followed by addition of a suitable amount of LB broth. After incubation with shaking for 18 hours, the respective resultant culture was subjected to serial dilution with a LB broth, so as to obtain seven dilutions (10^1 to 10^7).
(§4) Thereafter, 1 μL of the respective dilution was subjected to spread plate procedure. The number of surviving bacteria was counted, and the minimum inhibitory concentration to inhibit the growth of 90% of a bacterial isolate (MIC90) was determined according to the technique well known to and routinely used by one skilled in the art.
(§5) A respective one of the four CQD solutions (i.e., CQD^DA, CQD^DA-SPM, CQD^DA-SPM-1, and CQD^DA-SPM-2 solutions) and the SPM solutions and a respective one of bacterial broths of Staphylococcus aureus, Escherichia coli, Pseudomonas aeruginosa, Salmonella enteritidis, and MRSA were mixed in a 5 mM phosphate buffer (pH 7.4), and the respective resultant mixture was subjected to antimicrobial activity analysis according to the method described in section E of this example.

Experiment [2] concerns Staphylococcus aureus. Format: cell-based. Conditions: ATCC9144, Staphylococcus aureus ATCC 9144. As for the experimental part:
as §1, §2, §3, §4, §5

The test system of experiment [3] is Pseudomonas aeruginosa. The format is cell-based. Conditions: ATCC10145; Table 4; Pseudomonas aeruginosa ATCC 10145. As for the experimental part:
as §1, §2, §3, §4, §5

In experiment [4] the test system is Salmonella enteritidis. The format is cell-based. Conditions: Salmonella enterica, ATCC 13076 / ENTERITIDIS; Table 4; Salmonella enteritidis ATCC 13076. As for the experimental part:
as §1, §2, §3, §4, §5

Experiment [5] deals with MRSA. The format is cell-based, Methicillin-resistant Staphylococcus aureus. Conditions: Staphylococcus aureus, ATCC 33592 / MRSA; Table 4; MRSA ATCC 33592. How it is done:
as §1
A suitable amount of a respective one of CQD^DA, CQD^SPD, CQD^DA-SPM, CQD^DA-SPD, CQD^DA-PUT, CQD^DA-SPM-1, and CQD^DA-SPM-2 was freeze-dried, and the respective resultant freeze-dried powder was dissolved in deionized water, followed by dilution with a 5 mM phosphate buffer (pH 7.4), so as to obtain seven CQD solutions having different concentrations (0.05-50 μg/mL). […]

Where [6] appears, read: Table 3, 1 h in 5 mM phosphate buffer pH 7.4, then 18 h in LB broth.

The structures appear in SMILES notation. Values after ≈ are worked out from the molar mass of the structure shown.

In general, MIC90 refers to an inhibitory concentration at the 90% level, which refers to growth in some studies and to a panel of isolates in others. A low value points to higher susceptibility. In the case of `NCCc1ccc(O)c(O)c1` [DA, dopamine], the MIC90 in experiment [1] (setting [6]) stood at 512 µg/mL (≈ 3.34 mM); in experiment [2] (setting [6]) it was 250 µg/mL (≈ 1.63 mM).

For `NCCCNCCCCNCCCN` [SPM, spermine], the MIC90 in experiment [1] (setting [6]) is 2350 µg/mL (≈ 11.6 mM); in experiment [1] (Table 4), 2350 µg/mL (≈ 11.6 mM); in experiment [3] it was 2450 µg/mL (≈ 12.1 mM); in experiment [4], 2660 µg/mL (≈ 13.1 mM); in experiment [2] (setting [6]), 658 µg/mL (≈ 3.25 mM); in experiment [2] (Table 4), 658 µg/mL (≈ 3.25 mM). This molecule showed an MIC90 in experiment [5] of 1550 µg/mL (≈ 7.67 mM).
